Patent publication EP4678638A1, “NEW E3 UBIQUITIN LIGASE LIGAND, PROTEIN DEGRADATION AGENT AND USE THEREOF” (priority 2023, dated 2024)

Tests used:
Format in all cases: cell-based
Conditions in all cases: Table D16
WEE1 = biological target: T1, WEE1 (Homo sapiens, UniProt P30291+Q96SW2); experiment: Western blot degradation of WEE1 (hPBMC)
T1 construct: evaluate the effects of the compounds of the present disclosure on the expression of target proteins in cells; endogenous in cells; host or cells: hPBMC
Protocol: (§1) Conventional Western blot assay was performed to evaluate the effects of the compounds of the present disclosure on the expression of target proteins in cells.
(§2) (1) Cell Seeding and Protein Harvesting: The selected cells were processed according to the cell seeding procedure and protein harvesting procedure in Table III-2. Table III-2 Cell Seeding and Protein Harvesting Procedures
(§3) (2) To the collected supernatant, 5X SDS sample loading buffer was added, followed by denaturation at 95°C for 5 minutes. The denatured samples were then separated by SDS-PAGE electrophoresis on a polyacrylamide gel. Proteins were transferred to a nitrocellulose membrane (0.45 µm NC membrane), blocked with blocking buffer at room temperature for 1 hour, and subjected to antibody incubation and development procedures according to the antibody manufacturer's instructions (Cell Signaling Technology).
(§4) Half-Maximal Degradation Concentration value (the drug concentration required for degrading proteins by 50%, abbreviated as DC50) reads method: comparing the grayscale values of Western blot bands from drug-treated samples with those from blank DMSO-treated controls, and identifying the drug concentration range at which the grayscale value is half that of the DMSO-treated control bands.
(§5) DC50 values can be calculated using ImageJ software to measure grayscale values of Western blot bands from drug-treated samples. The concentration-response curve is fitted to estimate the drug concentration corresponding to half the grayscale value.
(§6) Target protein remaining (%) refers to the percentage of target protein remaining in hPBMC cells after treatment with protein degrader compounds.
(§7) Calculation method for target protein remaining (%): Use ImageJ software to measure grayscale values of Western blot bands from drug (protein degrader)-treated samples. The grayscale value of drug-treated bands is divided by that of internal control protein bands, and the resulting quotient is normalized to obtain the relative percentage of remaining target protein after protein degrader treatment.
(§8) Target protein degradation rate (%) = 100% - target protein remaining (%).

IKZF1 = biological target: T2, IKZF1 (Homo sapiens, UniProt Q13422+Q96SW2); experiment: Western blot degradation of IKZF1 (hPBMC)
T2 construct: evaluate the effects of the compounds of the present disclosure on the expression of target proteins in cells; endogenous in cells; host or cells: hPBMC
T2 sequence (Q13422 whole entry): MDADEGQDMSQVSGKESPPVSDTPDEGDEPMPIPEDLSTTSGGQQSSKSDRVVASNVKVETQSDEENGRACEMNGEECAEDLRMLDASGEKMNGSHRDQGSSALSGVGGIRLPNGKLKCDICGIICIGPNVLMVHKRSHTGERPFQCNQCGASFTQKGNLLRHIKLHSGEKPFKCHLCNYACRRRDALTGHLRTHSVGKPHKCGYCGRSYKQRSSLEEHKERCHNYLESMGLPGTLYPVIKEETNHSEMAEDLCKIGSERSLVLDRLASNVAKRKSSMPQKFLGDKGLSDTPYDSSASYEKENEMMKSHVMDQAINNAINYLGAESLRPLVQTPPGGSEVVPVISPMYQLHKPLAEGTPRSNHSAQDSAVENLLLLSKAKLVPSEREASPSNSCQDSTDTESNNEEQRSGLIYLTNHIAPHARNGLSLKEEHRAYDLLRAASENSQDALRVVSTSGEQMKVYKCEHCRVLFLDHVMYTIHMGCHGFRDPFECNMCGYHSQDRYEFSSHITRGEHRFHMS
T2 sequence (Q96SW2 whole entry): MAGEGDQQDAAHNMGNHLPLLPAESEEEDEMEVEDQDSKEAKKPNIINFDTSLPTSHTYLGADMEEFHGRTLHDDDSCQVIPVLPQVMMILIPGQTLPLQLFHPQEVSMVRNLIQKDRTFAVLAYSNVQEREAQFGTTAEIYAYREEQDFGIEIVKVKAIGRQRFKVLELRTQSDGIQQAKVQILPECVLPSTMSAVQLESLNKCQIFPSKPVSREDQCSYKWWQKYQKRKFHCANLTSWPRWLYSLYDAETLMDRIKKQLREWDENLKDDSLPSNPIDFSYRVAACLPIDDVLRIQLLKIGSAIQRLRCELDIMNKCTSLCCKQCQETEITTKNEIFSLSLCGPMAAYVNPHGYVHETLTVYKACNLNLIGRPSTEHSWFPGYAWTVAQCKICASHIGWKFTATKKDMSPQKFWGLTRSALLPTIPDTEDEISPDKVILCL
T2 sequence (Q16531 whole entry partner): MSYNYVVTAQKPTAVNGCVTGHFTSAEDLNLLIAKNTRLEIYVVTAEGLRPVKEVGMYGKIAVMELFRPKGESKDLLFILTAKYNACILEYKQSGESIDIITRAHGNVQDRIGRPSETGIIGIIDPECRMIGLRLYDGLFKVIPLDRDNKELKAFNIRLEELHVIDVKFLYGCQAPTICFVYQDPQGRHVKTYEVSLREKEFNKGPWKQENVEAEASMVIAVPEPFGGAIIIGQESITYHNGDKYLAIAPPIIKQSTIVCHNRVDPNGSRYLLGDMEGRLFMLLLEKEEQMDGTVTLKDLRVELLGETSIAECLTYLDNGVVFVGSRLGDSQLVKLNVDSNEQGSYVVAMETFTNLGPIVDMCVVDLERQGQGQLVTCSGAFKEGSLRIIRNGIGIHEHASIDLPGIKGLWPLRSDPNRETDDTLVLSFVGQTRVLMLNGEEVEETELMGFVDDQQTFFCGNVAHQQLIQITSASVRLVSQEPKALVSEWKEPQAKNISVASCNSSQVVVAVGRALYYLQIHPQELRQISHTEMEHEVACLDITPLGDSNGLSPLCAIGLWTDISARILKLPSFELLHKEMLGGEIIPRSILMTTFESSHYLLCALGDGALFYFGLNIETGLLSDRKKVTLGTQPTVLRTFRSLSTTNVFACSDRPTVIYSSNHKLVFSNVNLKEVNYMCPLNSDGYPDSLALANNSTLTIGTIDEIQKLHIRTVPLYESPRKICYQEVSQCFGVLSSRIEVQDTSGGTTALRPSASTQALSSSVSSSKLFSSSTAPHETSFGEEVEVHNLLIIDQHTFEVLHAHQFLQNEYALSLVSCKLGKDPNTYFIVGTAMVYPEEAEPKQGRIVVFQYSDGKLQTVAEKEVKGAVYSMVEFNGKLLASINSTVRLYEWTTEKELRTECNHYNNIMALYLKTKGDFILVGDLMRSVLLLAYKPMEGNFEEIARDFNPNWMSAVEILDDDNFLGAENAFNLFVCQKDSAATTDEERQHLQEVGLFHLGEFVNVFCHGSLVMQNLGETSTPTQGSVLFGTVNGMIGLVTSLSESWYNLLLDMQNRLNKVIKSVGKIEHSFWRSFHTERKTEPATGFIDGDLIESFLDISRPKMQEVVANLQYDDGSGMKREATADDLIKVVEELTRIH
Protocol: as §1, §2, §3, §4, §5, §6, §7, §8

IKZF2 = biological target: T3, IKZF2 (Homo sapiens, UniProt Q96SW2+Q9UKS7); experiment: Western blot degradation of IKZF2 (hPBMC)
T3 construct: evaluate the effects of the compounds of the present disclosure on the expression of target proteins in cells; endogenous in cells; host or cells: hPBMC
T3 sequence (Q9UKS7 whole entry): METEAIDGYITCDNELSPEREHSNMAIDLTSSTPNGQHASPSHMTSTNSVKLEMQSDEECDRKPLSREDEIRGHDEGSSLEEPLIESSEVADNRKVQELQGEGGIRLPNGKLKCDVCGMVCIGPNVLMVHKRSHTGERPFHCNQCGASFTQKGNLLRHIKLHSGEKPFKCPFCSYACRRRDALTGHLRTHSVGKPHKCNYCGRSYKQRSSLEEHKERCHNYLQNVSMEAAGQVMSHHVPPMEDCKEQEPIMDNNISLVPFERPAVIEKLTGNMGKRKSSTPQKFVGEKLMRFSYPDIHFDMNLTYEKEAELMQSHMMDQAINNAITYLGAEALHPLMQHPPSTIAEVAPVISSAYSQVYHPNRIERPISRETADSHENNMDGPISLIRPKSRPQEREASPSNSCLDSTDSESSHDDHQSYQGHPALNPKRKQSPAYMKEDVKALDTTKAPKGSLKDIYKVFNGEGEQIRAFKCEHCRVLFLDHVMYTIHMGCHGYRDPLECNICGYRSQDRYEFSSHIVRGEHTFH
T3 sequence (Q96SW2 whole entry): as the sequence (Q96SW2 whole entry) above
T3 sequence (Q16531 whole entry partner): as the sequence (Q16531 whole entry partner) above
Protocol: as §1, §2, §3, §4, §5, §6, §7, §8

IKZF3 = biological target: T4, IKZF3 (Homo sapiens, UniProt Q96SW2+Q9UKT9); experiment: Western blot degradation of IKZF3 (hPBMC)
T4 construct: evaluate the effects of the compounds of the present disclosure on the expression of target proteins in cells; endogenous in cells; host or cells: hPBMC
T4 sequence (Q9UKT9 whole entry): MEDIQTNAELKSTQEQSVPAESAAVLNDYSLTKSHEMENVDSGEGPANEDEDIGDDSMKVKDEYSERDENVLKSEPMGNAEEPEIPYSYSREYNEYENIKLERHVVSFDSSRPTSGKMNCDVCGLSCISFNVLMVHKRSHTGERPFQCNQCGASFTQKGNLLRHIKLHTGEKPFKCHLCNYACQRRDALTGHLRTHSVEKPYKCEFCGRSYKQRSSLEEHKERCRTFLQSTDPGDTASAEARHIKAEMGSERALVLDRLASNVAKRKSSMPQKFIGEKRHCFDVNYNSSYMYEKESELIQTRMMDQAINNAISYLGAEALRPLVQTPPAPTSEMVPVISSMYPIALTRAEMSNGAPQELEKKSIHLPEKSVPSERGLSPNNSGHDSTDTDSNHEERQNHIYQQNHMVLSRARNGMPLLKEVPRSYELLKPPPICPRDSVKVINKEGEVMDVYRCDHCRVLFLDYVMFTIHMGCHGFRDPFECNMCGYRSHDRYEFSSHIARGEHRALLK
T4 sequence (Q96SW2 whole entry): as the sequence (Q96SW2 whole entry) above
T4 sequence (Q16531 whole entry partner): as the sequence (Q16531 whole entry partner) above
Protocol: as §1, §2, §3, §4, §5, §6, §7, §8

CK1a = biological target: T5, CK1a (Homo sapiens, UniProt P48729+Q96SW2); experiment: Western blot degradation of CK1a (hPBMC)
T5 construct: evaluate the effects of the compounds of the present disclosure on the expression of target proteins in cells; endogenous in cells; host or cells: hPBMC
T5 sequence (P48729 whole entry): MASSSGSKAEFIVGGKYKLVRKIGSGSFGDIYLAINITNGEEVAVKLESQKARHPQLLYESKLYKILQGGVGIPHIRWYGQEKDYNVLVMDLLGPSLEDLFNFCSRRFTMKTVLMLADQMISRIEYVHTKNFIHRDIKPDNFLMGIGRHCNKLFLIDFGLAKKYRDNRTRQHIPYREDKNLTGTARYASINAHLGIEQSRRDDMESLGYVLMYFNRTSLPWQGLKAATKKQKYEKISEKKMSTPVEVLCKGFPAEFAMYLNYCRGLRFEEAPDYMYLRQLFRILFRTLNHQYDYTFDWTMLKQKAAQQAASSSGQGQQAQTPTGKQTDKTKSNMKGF
T5 sequence (Q96SW2 whole entry): as the sequence (Q96SW2 whole entry) above
T5 sequence (Q16531 whole entry partner): as the sequence (Q16531 whole entry partner) above
Protocol: as §1, §2, §3, §4, §5, §6, §7, §8

GSPT1 = biological target: T6, GSPT1 (Homo sapiens, UniProt P15170+Q96SW2); experiment: Western blot degradation of GSPT1 (hPBMC)
T6 construct: evaluate the effects of the compounds of the present disclosure on the expression of target proteins in cells; endogenous in cells; host or cells: hPBMC
T6 sequence (P15170 whole entry): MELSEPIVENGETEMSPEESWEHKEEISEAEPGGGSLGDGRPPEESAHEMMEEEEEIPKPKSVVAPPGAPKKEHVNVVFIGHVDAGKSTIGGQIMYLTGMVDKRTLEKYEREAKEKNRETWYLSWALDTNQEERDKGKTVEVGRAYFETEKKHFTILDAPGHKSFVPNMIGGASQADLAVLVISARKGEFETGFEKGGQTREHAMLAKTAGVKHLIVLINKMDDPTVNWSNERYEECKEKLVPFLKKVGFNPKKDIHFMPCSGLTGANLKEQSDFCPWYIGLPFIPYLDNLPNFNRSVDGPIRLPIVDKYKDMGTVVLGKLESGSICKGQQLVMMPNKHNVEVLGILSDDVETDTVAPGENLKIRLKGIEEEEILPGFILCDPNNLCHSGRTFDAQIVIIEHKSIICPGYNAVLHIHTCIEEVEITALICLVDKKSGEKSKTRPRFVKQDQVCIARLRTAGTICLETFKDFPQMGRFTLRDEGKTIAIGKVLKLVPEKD
T6 sequence (Q96SW2 whole entry): as the sequence (Q96SW2 whole entry) above
T6 sequence (Q16531 whole entry partner): as the sequence (Q16531 whole entry partner) above
Protocol: as §1, §2, §3, §4, §5, §6, §7, §8

| SMILES | Degradation of substrate protein WEE1 (substrate protein remaining %) (WEE1) | Degradation of substrate protein IKZF1 (substrate protein remaining %) (IKZF1) | Degradation of substrate protein IKZF2 (substrate protein remaining %) (IKZF2) | Degradation of substrate protein IKZF3 (substrate protein remaining %) (IKZF3) | Degradation of substrate protein CKla (substrate protein remaining %) (CK1a) | Degradation of substrate protein GSPT1 (substrate protein remaining %) (GSPT1) |
| --- | --- | --- | --- | --- | --- | --- |
| O=C1CCN(c2cnc(F)c(CO)c2)C(=O)N1 [GT-07556, 1-(6-Fluoro-5-(hydroxymethyl)pyridin-3-yl)dihydropyrimidine-2,4(1H,3H)-dione] | A (A is defined as 0% ≤ substrate protein remaining % ≤ 80%) | A (A is defined as 0% ≤ substrate protein remaining % ≤ 80%) | B (B is defined as substrate protein remaining % > 80%) | A (A is defined as 0% ≤ substrate protein remaining % ≤ 80%) | A (A is defined as 0% ≤ substrate protein remaining % ≤ 80%) | B (B is defined as substrate protein remaining % > 80%) |
| O=C1CCC(c2ccc(CO)nc2F)C(=O)N1 (stereo not drawn) [GT-07558, 3-(2-Fluoro-6-(hydroxymethyl)pyridin-3-yl)piperidine-2,6-dione] | A (A is defined as 0% ≤ substrate protein remaining % ≤ 80%) | A (A is defined as 0% ≤ substrate protein remaining % ≤ 80%) | B (B is defined as substrate protein remaining % > 80%) | B (B is defined as substrate protein remaining % > 80%) | A (A is defined as 0% ≤ substrate protein remaining % ≤ 80%) | B (B is defined as substrate protein remaining % > 80%) |
| O=C1CCC(Nc2cnccc2CO)C(=O)N1 (stereo not drawn) [GT-07559, 3-((4-(Hydroxymethyl)pyridin-3-yl)amino)piperidine-2,6-dione] | A (A is defined as 0% ≤ substrate protein remaining % ≤ 80%) | A (A is defined as 0% ≤ substrate protein remaining % ≤ 80%) | A (A is defined as 0% ≤ substrate protein remaining % ≤ 80%) | A (A is defined as 0% ≤ substrate protein remaining % ≤ 80%) | A (A is defined as 0% ≤ substrate protein remaining % ≤ 80%) | A (A is defined as 0% ≤ substrate protein remaining % ≤ 80%) |
| O=C1CCN(c2cncc(CO)n2)C(=O)N1 [GT-07632, 1-(6-(Hydroxymethyl)pyrazin-2-yl)dihydropyrimidine-2,4(1H,3H)-dione] | A (A is defined as 0% ≤ substrate protein remaining % ≤ 80%) | A (A is defined as 0% ≤ substrate protein remaining % ≤ 80%) | A (A is defined as 0% ≤ substrate protein remaining % ≤ 80%) | A (A is defined as 0% ≤ substrate protein remaining % ≤ 80%) | A (A is defined as 0% ≤ substrate protein remaining % ≤ 80%) | B (B is defined as substrate protein remaining % > 80%) |
| O=C1CCN(c2cnc(CO)cn2)C(=O)N1 [GT-07634, 1-(5-(Hydroxymethyl)pyrazin-2-yl)dihydropyrimidine-2,4(1H,3H)-dione] | A (A is defined as 0% ≤ substrate protein remaining % ≤ 80%) | A (A is defined as 0% ≤ substrate protein remaining % ≤ 80%) | A (A is defined as 0% ≤ substrate protein remaining % ≤ 80%) | A (A is defined as 0% ≤ substrate protein remaining % ≤ 80%) | A (A is defined as 0% ≤ substrate protein remaining % ≤ 80%) | B (B is defined as substrate protein remaining % > 80%) |
| CC(C)(C)[Si](C)(C)OCc1ccncc1NC1CCC(=O)NC1=O (stereo not drawn) [GT-07638, 3-((4-(((tert-Butyldimethylsilyl)oxy)methyl)pyridin-3-yl)amino)piperidine-2,6-dione] | A (A is defined as 0% ≤ substrate protein remaining % ≤ 80%) | B (B is defined as substrate protein remaining % > 80%) | A (A is defined as 0% ≤ substrate protein remaining % ≤ 80%) | A (A is defined as 0% ≤ substrate protein remaining % ≤ 80%) | B (B is defined as substrate protein remaining % > 80%) | A (A is defined as 0% ≤ substrate protein remaining % ≤ 80%) |
| CC(C)(C)[Si](C)(C)OCc1cncnc1NC1CCC(=O)NC1=O (stereo not drawn) [GT-07639, 3-((5-(((tert-Butyldimethylsilyl)oxy)methyl)pyrimidin-4-yl)amino)piperidine-2,6-dione] | A (A is defined as 0% ≤ substrate protein remaining % ≤ 80%) | A (A is defined as 0% ≤ substrate protein remaining % ≤ 80%) | A (A is defined as 0% ≤ substrate protein remaining % ≤ 80%) | A (A is defined as 0% ≤ substrate protein remaining % ≤ 80%) | A (A is defined as 0% ≤ substrate protein remaining % ≤ 80%) | A (A is defined as 0% ≤ substrate protein remaining % ≤ 80%) |
| O=Cc1ccc(NC2CCC(=O)NC2=O)cn1 (stereo not drawn) [GT-07640, 5-((2,6-Dioxopiperidin-3-yl)amino)picolinaldehyde] | A (A is defined as 0% ≤ substrate protein remaining % ≤ 80%) | A (A is defined as 0% ≤ substrate protein remaining % ≤ 80%) | A (A is defined as 0% ≤ substrate protein remaining % ≤ 80%) | A (A is defined as 0% ≤ substrate protein remaining % ≤ 80%) | B (B is defined as substrate protein remaining % > 80%) | A (A is defined as 0% ≤ substrate protein remaining % ≤ 80%) |
| CC(C)(C)[Si](C)(C)OCc1cc(NC2CCC(=O)NC2=O)ncc1F (stereo not drawn) [GT-07724, 3-((4-(((tertbutyldimethylsilyl)oxy)methyl)-5-fluoropyridin-2-yl)amino)piperidine-2,6-dione] | A (A is defined as 0% ≤ substrate protein remaining % ≤ 80%) | A (A is defined as 0% ≤ substrate protein remaining % ≤ 80%) | A (A is defined as 0% ≤ substrate protein remaining % ≤ 80%) | A (A is defined as 0% ≤ substrate protein remaining % ≤ 80%) | B (B is defined as substrate protein remaining % > 80%) | A (A is defined as 0% ≤ substrate protein remaining % ≤ 80%) |
